Experiment in all cases: NCI tumour cell line growth inhibition, 48 h
The subject of assay [1] is NCI-H226 lung.
The subject of assay [2] is IGROV1 ovarian.
Assay [3] deals with A498 renal.
Assay [4] has as its system OVCAR-3 ovarian.
The test system of assay [5] is SW-620 colon.
Assay [6] deals with RPMI-8226 leukemia.
For assay [7], the system named is LOX IMVI melanoma.
Assay [8] deals with MDA-MB-435.
In assay [9] the test system is SR leukemia.
The test system of assay [10] is NCI-H23 lung.

This is an account of results in PubChem BioAssay (NCI).

Where “and” joins values, the source holds several entries; their conditions need not be identical. Equal values may be shown once.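 Cultured in 96-well plates, cells were exposed to test compound for 48 hours across five concentrations. Here, GI50 denotes the concentration required for 50% inhibition of growth. TGI denotes the concentration required for complete inhibition of growth.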 Some results are limits rather than exact numbers.

For `C[C@@H]1Cc2c(ccc3[nH]ncc23)[C@@H](c2ccc(NC3CN(CCCF)C3)cn2)N1CC(F)(F)F`, the GI50 in [1] is 39 µM; in [2], 20.2 µM; in [3] it was 15.6 µM; in assay [4], 20.3 µM; in [5] it was 17.5 µM; in assay [6], 18.6 µM. For the same molecule, the GI50 in assay [7] was 16.1 µM; in [8], 17.2 µM; in assay [9], 16800 nM. Further, the TGI in assay [1] was > 100 µM; in [2], 62.4 µM; in assay [3], 36.6 µM; in assay [4], 57.8 µM; in [5], 34.3 µM; in [6], 47.4 µM. Further, the TGI in [7] is 31.4 µM; in assay [8], 34.8 µM; in assay [9], 53.1 µM.

In the case of `CCOC(=O)C(=O)Nc1nc2ccc(C)cc2s1`, the TGI in assay [1], in assay [2], in assay [3], in assay [4], in assay [5] and in [10] was > 100 µM in each case. Further, the TGI in assay [6] and in assay [9] was > 100 µM in each case.

Take `Cc1ccc([N+]2=NC(c3ccccc3)=NN(c3ccccc3)C2)cc1`: the TGI in assay [1], in assay [2], in [3], in assay [4], in assay [5] and in assay [10] was > 100 µM throughout. Moreover, the TGI in assay [6], in assay [7] and in assay [9] was > 100 µM in each case.

As to `CN1C/C(=C\c2ccc(C(=O)O)cc2)C(=O)/C(=C/c2ccc(C(=O)O)cc2)C1`, the TGI in [1], in assay [2], in assay [3], in assay [4], in assay [5] and in assay [10] was > 100 µM each time. For the same molecule, the TGI in assay [6], in assay [7] and in assay [9] was > 100 µM each time.

On to `CN(C)Cc1cc(C(C)(C)C)cc(CN(C)C)c1O`, for which the TGI in assay [2], in assay [3], in assay [4], in [5], in assay [10] and in [6] was > 100 µM throughout. For the same molecule, the TGI in assay [7], in assay [8] and in assay [9] was > 100 µM each time.

Turning to `O=C(CCc1cc(-c2ccc(F)cc2)n[nH]1)N(Cc1ccccc1)Cc1ccccc1`, the TGI in assay [1], in assay [2], in assay [3], in assay [4], in [5] and in [10] was > 100 µM throughout. Also, the figures for the TGI in assay [6], in assay [7] and in assay [9] were > 100 µM, > 100 µM and 81.1 µM, respectively.

As for `COc1ccc(F)cc1-c1ccnc2[nH]c(C3=CCN(C4CCC(CC(=O)O)CC4)CC3)cc12` (stereo not drawn), the GI50 is 0.168 µM in assay [2]; 0.21 µM in [3]; 0.107 µM in assay [4]; 0.123 µM in assay [5]; 0.185 µM in [10]; 0.235 µM in assay [6]. In addition, the GI50 in [8] was 0.221 µM; in assay [9], 29.5 nM. Moreover, the TGI in assay [2] was > 100 µM; in assay [3] it was 0.543 µM; in [4], > 100 µM; in assay [5], 18.3 µM; in assay [10] it was 2.53 µM; in assay [6], 0.786 µM. The TGI in [8] is 1.05 µM; in assay [9] it was > 100 µM.

Consider `CSc1nc2ccc(C)cc2cc1/C=C1/C=C(c2ccccc2)NC1=O`, for which the GI50 was 7.3 µM in assay [1]; 2.71 µM in [2]; 1.78 µM in assay [4]; 2.62 µM in [5]; 10 µM in assay [10]; 8.9 µM in assay [6]. Besides, the results for the GI50 in assay [7], in [8] and in assay [9] were 6.33 µM, 0.718 µM and 598 nM, respectively. For the same molecule, the TGI in assay [1] is > 100 µM; in assay [2] it was 24.1 µM; in assay [4] it was 15.9 µM; in assay [5], 92.1 µM; in [10], > 100 µM; in [6], > 100 µM. The TGI was 33.2 µM in assay [7], 21 µM in [8] and > 100 µM in [9].

With `O/N=C1\C(=C\c2ccc3c(c2)OCCO3)CCCC1C(NO)c1ccc2c(c1)OCCO2` (stereo not drawn), the TGI in [2] is > 100 µM; in [3] it was 60 µM; in assay [4], 39.6 µM; in assay [5] it was > 100 µM; in assay [6] it was > 100 µM; in assay [7], 29.1 µM. The molecule further registered a TGI in [9] of 55.5 µM.

With `O=C1CC2OCC=C3CN4CCC5(C(=O)O)C(N1)C2C3CC45` (stereo not drawn), the TGI in assay [1], in assay [2], in [3], in assay [4], in assay [5] and in [10] was > 100 µM throughout. Further, the TGI in assay [7], in assay [8] and in assay [9] was > 100 µM in each case.

As for `NC(=O)c1nc(-c2ccc(Cl)c(Cl)c2)nc2ccccc12`, the TGI is > 100 µM in assay [1]; > 100 µM in [2]; > 100 µM in assay [3]; > 29.4 µM in assay [4]; > 100 µM in assay [5]; > 100 µM in assay [10]. In addition, the TGI in assay [6], in assay [7] and in assay [9] was > 100 µM each time.

Take `NC1=Nc2ccccc2Sc2ccccc21`: the TGI in [1], in assay [2], in assay [3], in assay [4], in assay [5] and in assay [10] was > 100 µM throughout. Besides, the TGI in assay [6], in assay [7] and in assay [9] was > 100 µM throughout.

For `CC(=O)/C(=C/N1CCN(C(=O)c2ccco2)C1=S)C(=O)c1ccccc1`, the GI50 is 10.9 µM in assay [2]; 17.2 µM in assay [4]; 6.12 µM in assay [5]; 3.79 µM in assay [6]; 8.91 µM in assay [7]; 10.7 µM in [8]. Also, the GI50 in [9] is 2710 nM. The TGI in assay [2] is 28.4 µM; in assay [4], > 50 µM; in assay [5] it was 17 µM; in assay [6], 18.2 µM; in [7], 20.4 µM; in [8], 43.9 µM. The molecule also yielded a TGI in assay [9] of 13.4 µM.

Consider `Cc1c(Cl)cccc1NC(=O)C(=O)c1c(O)c2ccc(O)cc2oc1=O`, for which the TGI in [1], in assay [2], in [3], in assay [4], in [5] and in assay [10] was > 100 µM each time. Besides, the TGI in [7] and in assay [9] was > 100 µM in each case.

As for `CC(CC(=O)Nc1ccc(NC(=O)CC(C)N=NC(N)=O)cc1)N=NC(N)=O` (stereo not drawn), the TGI in [1], in assay [2], in assay [3], in assay [4], in assay [10] and in assay [6] was > 100 µM each time. The TGI in assay [7] was determined as 79.8 µM; in [9], 48.4 µM.

On to `CN(C)C(=S)/N=c1\ss/c(=N\S(=O)(=O)c2ccccc2)n1C`, for which the TGI in assay [1], in [2], in assay [3], in assay [5], in [10] and in [6] was > 100 µM in each case. Further, the TGI in assay [7] and in assay [9] was > 100 µM throughout.

Turning to `CCCCCC/C(CC(=O)CCC(=O)NCCc1ccccc1)=N\Nc1ccc([N+](=O)[O-])cc1[N+](=O)[O-]`, the TGI in assay [1], in [2], in assay [3], in [4], in [5] and in assay [10] was > 100 µM throughout. The figures for the TGI in assay [6], in assay [7] and in [9] were 81.7 µM, > 100 µM and 67.7 µM, respectively.

Take `Cc1ccc(C)c(NC(=O)C(=O)Nn2c(=S)[nH]c3ccccc3c2=O)c1`: the TGI in assay [1], in assay [2], in [3], in [5], in assay [10] and in assay [6] was > 100 µM each time. The TGI in assay [7] and in assay [9] was > 100 µM in each case.

On to `O=[N+]([O-])c1ccc2nc(-c3ccc(Cl)cc3)[nH]c2c1`, for which the TGI in [1] was 58 µM; in assay [2], 89.5 µM; in [4] it was 89.3 µM; in [5], > 100 µM; in assay [10] it was > 100 µM; in assay [6] it was 57.4 µM. Further, the TGI worked out at 35.3 µM in assay [7], 46.8 µM in assay [8] and 79.9 µM in assay [9].

Consider `CC/C(C)=C1\CCC(CN(C)C)C1=O` (stereo not drawn), for which the TGI is > 100 µM in assay [1]; 36.8 µM in [2]; 37.5 µM in [3]; 33.2 µM in assay [4]; 53.4 µM in [5]; 42.9 µM in [10]. Moreover, the TGI in [6] came out at 17.1 µM; in assay [7], 40.7 µM; in assay [9] it was 43.2 µM.

For the molecule `Cc1nc(-n2nc(-c3ccccc3)cc2-c2ccccc2)sc1C(=O)CC(=O)C(=O)Nc1ccc(O)cc1`, the TGI in [1], in [2], in assay [3], in assay [4], in assay [5] and in assay [10] was > 100 µM each time. Besides, the TGI in assay [6], in [7] and in assay [9] was > 100 µM each time.

Regarding `C=Cc1cc(OC)c2c(c1)c(=O)oc1c2cc(OC)c2c(O)ccc(C3OC(C(C)O)C(O)C3O)c21` (stereo not drawn), the GI50 in assay [1] was 0.023 µM; in assay [2] it was 0.0034 µM; in assay [3], 0.00126 µM; in assay [4] it was 0.0155 µM; in assay [5], 0.0117 µM; in [10], 0.000928 µM. The GI50 in assay [8] is 0.0145 µM; in assay [9] it was 0.0483 nM and 0.209 nM. Further, the TGI in [1] amounted to 0.099 µM; in assay [2] it was 0.104 µM; in [3] it was 0.00468 µM; in assay [4], 0.0423 µM; in assay [5] it was 0.084 µM; in [10] it was 0.0151 µM. Further, the values for the TGI in assay [8] and in assay [9] were 0.0337 µM and 0.00406 µM, respectively.

`CCCC(=O)OC(OC(=O)CCC)c1ccc([N+](=O)[O-])o1`: the TGI in assay [2] was 28.3 µM; in assay [3], > 100 µM; in assay [4], 41.4 µM; in assay [5] it was 41.2 µM; in [10], 48.8 µM; in [6] it was 49.7 µM. The TGI in assay [7] stood at 58.5 µM; in [8] it was 47.4 µM; in [9], 53.1 µM.

Consider `Cc1cc2nc(-c3ccc(O)c(O)c3)n(Cc3ccc(O)c(O)c3)c2cc1C`, for which the GI50 in [1] was 18.7 µM; in assay [2] it was 18.1 µM; in [3] it was 77.2 µM; in assay [4] it was 14.6 µM; in [5] it was 24.7 µM; in assay [10] it was 35.1 µM. Further, the GI50 in assay [7] was 13.1 µM; in assay [8], 16 µM; in [9], 4180 nM. For the same molecule, the TGI is 35 µM in [1]; > 100 µM in assay [2]; > 100 µM in [3]; 77 µM in [4]; > 100 µM in [5]; > 100 µM in assay [10]. In addition, the values for the TGI in assay [7], in assay [8] and in assay [9] were 28.4 µM, > 100 µM and 19.5 µM, respectively.

In the case of `N#CC(C#N)C(c1ccccc1)c1ccccc1`, the TGI in assay [1], in assay [2], in [3], in assay [4], in assay [5] and in [6] was > 100 µM throughout. Moreover, the TGI in [7] and in assay [9] was > 100 µM throughout.
